Here are results for seven compounds from ChEMBL document CHEMBL5154686, “Discovery of G2019S-Selective Leucine Rich Repeat Protein Kinase 2 inhibitors with in vivo efficacy” (Eur J Med Chem, 2022).

A short description of series [1]: Half life in CD-1 mouse plasma at 2 mg/kg, po by LC-MS/MS analysis. The format is ADME, organism-based.
The nature of series [2]: Cmax in CD-1 mouse plasma at 2 mg/kg, po by LC-MS/MS analysis. Set-up: dose 2 mg/kg, route po. The format is ADME, organism-based.
A short description of series [3]: MRT in CD-1 mouse plasma at 0.4 mg/kg, iv by LC-MS/MS analysis. The format is ADME, organism-based.
The nature of series [4]: Half life in CD-1 mouse plasma at 0.4 mg/kg, iv by LC-MS/MS analysis. The format is ADME, organism-based.
A short description of series [5]: Ratio of drug level in brain to plasma in CD-1 mouse plasma at 2 mg/kg, po by LC-MS/MS analysis. Conditions: brain and plasma, read-out: BPR. The format is ADME, organism-based.
Series [6] in a line: Tmax in CD-1 mouse plasma at 2 mg/kg, po by LC-MS/MS analysis. The format is ADME, organism-based.
The nature of series [7]: Clearance in CD-1 mouse plasma at 0.4 mg/kg, iv by LC-MS/MS analysis. The format is ADME, organism-based.
The nature of series [8]: AUC infinity in CD-1 mouse plasma at 0.4 mg/kg, iv by LC-MS/MS analysis. Set-up: time infinity, dose 0.4 mg/kg, route iv. The format is ADME, organism-based.
The nature of series [9]: MRT in CD-1 mouse plasma at 2 mg/kg, po by LC-MS/MS analysis. The format is ADME, organism-based.
Series [10] is described as follows: in vitro. Conditions: mouse, liver microsomes.
Series [11] in a line: Oral bioavailability in CD-1 mouse plasma at 2 mg/kg by LC-MS/MS analysis. The format is ADME, organism-based.
Series [12] in a line: in vitro. Conditions: human, Caco-2.
A short description of series [13]: Cmax in CD-1 mouse plasma at 0.4 mg/kg, iv by LC-MS/MS analysis. The format is ADME, organism-based. Set-up: dose 0.4 mg/kg, route iv.
A short description of series [14]: Ratio of drug level in brain to plasma in CD-1 mouse plasma at 0.4 mg/kg, iv by LC-MS/MS analysis. Conditions: brain and plasma, read-out: BPR. The format is ADME, organism-based.
Series [15] in a line: in vitro. As to conditions: human, liver microsomes. On the technique in general: Liver microsomes are a subcellular fraction often used to study metabolism.
The nature of series [16]: in vitro. As to conditions: human, Caco-2. The source holds these as a separate data set.
Series [17] can be described thus: AUC infinity in CD-1 mouse plasma at 2 mg/kg, po by LC-MS/MS analysis. The format is ADME, organism-based. Also noted: time infinity, dose 2 mg/kg, route po.

Broadly, the half-life is the time in which the quantity being followed falls by half. A higher half-life goes with slow loss. One may read the Cmax as the highest concentration seen after dosing. As a reminder, the MRT is a mean duration of stay, worked out from the concentration-time curve. For orientation: Tmax means the time at which the peak concentration occurs. One may read the clearance as a measure of how efficiently the substance is removed, as volume per time. A higher clearance goes with a high capacity for elimination. Broadly, the AUC(0-inf) is the area under the concentration-time curve extrapolated to infinity. Low readings indicate low exposure, high ones high exposure. The term Papp B→A denotes how fast a substance crosses the layer from the basolateral side. Usually Papp A→B stands for how fast a substance crosses the layer from the apical side. A higher Papp A→B goes with fast passage. Consider `N#Cc1ccc2c(c1)CCC[C@@H]2Nc1ccc2[nH]nc(-c3ccncc3)c2c1`, for which the half-life in [1] is 90 min; in series [4] it was 42 min; in the series “in vitro [10]” it was 17.7 min; in the series “in vitro [15]”, 33 min. Further, the values for the Cmax in series [2] and in [13] were 470 nM and 340 nM, respectively. The MRT in series [3] turned out to be 48 min; in series [9] it was 152 min. Besides, the Kp worked out at 0.8 in series [5] and 1.8 in series [14]. The Tmax in series [6] was found to be 30 min. This compound had a clearance in series [7] of 68.4 mL/min. In addition, the AUC(0-inf) in [8] was determined as 0.27 µM·h; in series [17], 1.49 µM·h. For the same compound, the bioavailability in series [11] turned out to be 112%. Further, in “in vitro [12]”, the Papp B→A came to 7.3 ×10⁻⁶ cm/s. Besides, the Papp A→B in the series “in vitro [16]” was 8.9 ×10⁻⁶ cm/s.
As for `Cc1cc(-c2n[nH]c3ccc(N[C@H]4CCCc5cc(C#N)ccc54)cc23)ccn1`, the results for the half-life in “in vitro [10]” and in the series “in vitro [15]” were 15.4 min and 22 min, respectively. In “in vitro [12]”, this compound displayed a Papp B→A of 4.1 ×10⁻⁶ cm/s. Besides, the Papp A→B in the series “in vitro [16]” was found to be 13 ×10⁻⁶ cm/s.
Consider `N#Cc1ccc2c(c1)CCC[C@H]2Nc1ccc2[nH]nc(-c3ccnc(N4CCOCC4)c3)c2c1`, for which the half-life in [1] was 104 min; in series [4], 42 min; in the series “in vitro [10]”, 12.7 min; in “in vitro [15]”, 30 min. The Cmax in series [2] was 500 nM; in series [13], 480 nM. The MRT was 51.6 min in series [3] and 175 min in series [9]. Besides, the Kp was determined as 0.1 in [5] and 0.3 in series [14]. The Tmax in series [6] amounted to 30 min. In addition, the clearance in series [7] came to 36.6 mL/min. Besides, the AUC(0-inf) in [8] worked out at 0.4 µM·h; in [17] it was 1.64 µM·h. The bioavailability in series [11] was found to be 80%. Also, in the series “in vitro [12]”, the Papp B→A worked out at 0.8 ×10⁻⁶ cm/s. Further, the Papp A→B in the series “in vitro [16]” was 6.2 ×10⁻⁶ cm/s.
For `N#Cc1ccc2c(c1)OCC[C@H]2Nc1ccc2[nH]nc(-c3ccncc3)c2c1`, the half-life was 88.2 min in series [1], 18 min in series [4], 10.3 min in “in vitro [10]” and 38 min in “in vitro [15]”. The values for the Cmax in series [2] and in [13] were 460 nM and 280 nM, respectively. For the same compound, the MRT was determined as 24.6 min in series [3] and 145 min in series [9]. For the same compound, the Kp was determined as 0.5 in series [5] and 1 in series [14]. For the same compound, the Tmax in series [6] was 30 min. The compound also came in with a clearance in [7] of 94.9 mL/min. The AUC(0-inf) worked out at 0.14 µM·h in series [8] and 1.29 µM·h in series [17]. Moreover, the bioavailability in series [11] came out at 147%. For the same compound, the Papp B→A in the series “in vitro [12]” worked out at 25 ×10⁻⁶ cm/s. Further, the Papp A→B in the series “in vitro [16]” stood at 19 ×10⁻⁶ cm/s.
Regarding `Cc1cc(-c2n[nH]c3ccc(N[C@@H]4CCCc5cc(C#N)ccc54)cc23)ccn1`, the half-life was 107 min in series [1], 24 min in series [4], 12.8 min in “in vitro [10]” and 22 min in the series “in vitro [15]”. Further, the Cmax in series [2] stood at 390 nM; in series [13] it was 310 nM. Besides, the results for the MRT in [3] and in [9] were 30.6 min and 162 min, respectively. In addition, the Kp is 0.1 in series [5] and 0.5 in series [14]. Besides, the Tmax in series [6] was found to be 3000 min. In series [7], this compound showed a clearance of 65.1 mL/min. The AUC(0-inf) in series [8] came to 0.16 µM·h; in [17], 1.06 µM·h. Also, in series [11], the bioavailability stood at 77%. Moreover, the Papp B→A in “in vitro [12]” was determined as 6.8 ×10⁻⁶ cm/s. Moreover, the Papp A→B in “in vitro [16]” is 1.8 ×10⁻⁶ cm/s.
In the case of `N#Cc1ccc2c(c1)CCC[C@H]2Nc1ccc2[nH]nc(-c3ccncc3)c2c1`, the half-life in “in vitro [10]” was 12.4 min; in the series “in vitro [15]”, 26 min. The Papp B→A in “in vitro [12]” stood at 11 ×10⁻⁶ cm/s. Moreover, in the series “in vitro [16]”, the Papp A→B amounted to 8.1 ×10⁻⁶ cm/s.
The matching figures for `Cc1cc(-c2n[nH]c3ccc(N[C@H]4CCCc5cc(C#N)ccc54)cc23)cc(C)n1`: 11.7 min, 15 min, 4 ×10⁻⁶ cm/s and 4.6 ×10⁻⁶ cm/s.
